This test has as its system IL-2 secretion. As to the kind of experiment: Inhibition of IL-2 secretion in PHA-stimulated Jurkat T cells (ELISA). The test is classed as cell-based. The conditions noted are these: Homo sapiens, PHA stimulation, 20 to 24 hours, IL-2 by ELISA. On the procedure: The CRAC channel modulatory activity of the compounds were thus evaluated by measuring the secretion of IL-2 by antigen stimulated T-cells in vitro. Alternatively, such activity can also be evaluated by assay methods known to one skilled in the art.
Inhibition of IL-2 secretion: Jurkat T cells were seeded at a density of 0.5 to 1 million cells per well in RPMI medium. Test compounds from this invention were added to the cells at different concentrations. This was followed by the addition of PHA, a T cell mitogen after 10 minutes. The cells were then incubated for 20 to 24 hours in a CO2 incubator at 37° C. After incubation with the compounds, cells were centrifuged, the supernatant was collected and processed for ELISA to quantitate the amount of IL-2 secreted. A commercial ELISA kit (R&D Systems, Inc. Minneapolis, Minn., USA) was used to estimate the IL-2 concentrations. Amount of IL-2 secreted by cells stimulated with PHA was considered as a 100% maximal signal and the decrease in amount of IL-2 secreted by cells treated with the test compounds was expressed as percent inhibition of the maximal signal. The dose response data was analyzed using 4-parametric sigmoidal dose response (variable slope) curve—fit.
As to `Cn1nc(-c2cc(C(F)(F)F)n(-c3ccc(NCc4c(F)cccc4F)nc3)n2)oc1=O` [Example 51, 5-(1-(6-((2,6-Difluorobenzyl)amino)pyridin-3-yl)-5-(trifluoromethyl)-1H-pyrazol-3-yl)-3-methyl-1,3,4-oxadiazol-2(3H)-one], the IC50 is less than 100 nM.
The result for `Cn1nc(-c2cc(C(F)F)nn2-c2ccc(NCc3c(F)cccc3F)cn2)oc1=O` [Example 13, 5-(1-(5-((2,6-Difluorobenzyl)amino)pyridin-2-yl)-3-(difluoromethyl)-1H-pyrazol-5-yl)-3-methyl-1,3,4-oxadiazol-2(3H)-one] reads more than 1000 nM.
Take `Cn1nc(-c2cc(C(F)(F)F)n(-c3ccc(NC(=O)c4ccccc4Cl)nc3)n2)oc1=O` [Example 47, 2-Chloro-N-(5-(3-(4-methyl-5-oxo-4,5-dihydro-1,3,4-oxadiazol-2-yl)-5-(trifluoromethyl)-1H-pyrazol-1-yl)pyridin-2-yl)benzamide]: the IC50 was less than 100 nM.
`Cn1nc(-c2cc(C(F)F)nn2-c2ccc(NC(=O)c3c(F)cccc3F)cn2)oc1=O` [Example 4, N-(6-(3-(Difluoromethyl)-5-(4-methyl-5-oxo-4,5-dihydro-1,3,4-oxadiazol-2-yl)-1H-pyrazol-1-yl)pyridin-3-yl)-2,6-difluorobenzamide]: the concentration for half-maximal inhibition (IC50) is more than 1000 nM.
Next, `Cn1c(-c2cc(C(F)(F)F)n(-c3ccc(NC(=O)c4c(F)cccc4F)cn3)n2)noc1=O` [Example 19, 2,6-Difluoro-N-(6-(3-(4-methyl-5-oxo-4,5-dihydro-1,2,4-oxadiazol-3-yl)-5-(trifluoromethyl)-1H-pyrazol-1-yl)pyridin-3-yl)benzamide]: 100 to 1000 nM.
As to `CC1(C)COC(c2cc(C(F)(F)F)n(-c3ccc(NC(=O)c4c(F)cccc4F)cn3)n2)=N1` [Example 21, N-(6-(3-(4,4-Dimethyl-4,5-dihydrooxazol-2-yl)-5-(trifluoromethyl)-1H-pyrazol-1-yl)pyridin-3-yl)-2,6-difluorobenzamide], the half-maximal inhibitory concentration (IC50) lay within 100 to 1000 nM.
The result for `COC(=O)C1(C)CC(c2cc(C(F)(F)F)n(-c3ccc(NC(=O)c4c(F)cccc4F)cn3)n2)=NO1` (stereo not drawn) [Example 35, Methyl 3-(1-(5-(2,6-difluorobenzamido)pyridin-2-yl)-5-(trifluoromethyl)-1H-pyrazol-3-yl)-5-methyl-4,5-dihydroisoxazole-5-carboxylate] reads 100 to 1000 nM; that for `Cn1nc(-c2cc(C(F)(F)F)n(-c3ccc(NC(=O)c4cc(F)c(F)cc4F)nc3)n2)oc1=O` [Example 43, 2,4,5-Trifluoro-N-(5-(3-(4-methyl-5-oxo-4,5-dihydro-1,3,4-oxadiazol-2-yl)-5-(trifluoromethyl)-1H-pyrazol-1-yl)pyridin-2-yl)benzamide], less than 100 nM.
The result for `Cc1cccc(F)c1C(=O)Nc1ccc(-n2nc(-c3nn(C)c(=O)o3)cc2C(F)(F)F)nc1` [Example 10, 2-Fluoro-6-methyl-N-(6-(3-(4-methyl-5-oxo-4,5-dihydro-1,3,4-oxadiazol-2-yl)-5-(trifluoromethyl)-1H-pyrazol-1-yl)pyridin-3-yl)benzamide] reads less than 100 nM.
The result for `Cc1cccc(C(=O)Nc2ccc(-n3nc(-c4nn(C)c(=O)o4)cc3C(F)(F)F)cn2)c1C` [Example 46, 2,3-Dimethyl-N-(5-(3-(4-methyl-5-oxo-4,5-dihydro-1,3,4-oxadiazol-2-yl)-5-(trifluoromethyl)-1H-pyrazol-1-yl)pyridin-2-yl)benzamide] reads less than 100 nM; that for `CC1(CO)CC(c2cc(C(F)(F)F)n(-c3ccc(NCc4c(F)cccc4F)cn3)n2)=NO1` (stereo not drawn) [Example 33, (3-(1-(5-((2,6-Difluorobenzyl)amino)pyridin-2-yl)-5-(trifluoromethyl)-1H-pyrazol-3-yl)-5-methyl-4,5-dihydroisoxazol-5-yl)methanol], less than 100 nM; that for `COC(=O)C1(C)CC(c2cc(C(F)(F)F)n(-c3ccc(NCc4c(F)cccc4Cl)cn3)n2)=NO1` (stereo not drawn) [Example 7, Methyl 3-(1-(5-((2-chloro-6-fluorobenzyl)amino)pyridin-2-yl)-5-(trifluoromethyl)-1H-pyrazol-3-yl)-5-methyl-4,5-dihydroisoxazole-5-carboxylate], 100 to 1000 nM.
As to `Cn1nc(-c2cc(C(F)(F)F)n(-c3ccc(NC(=O)c4c(F)cccc4F)nc3)n2)oc1=O` [Example 38, 2,6-Difluoro-N-(5-(3-(4-methyl-5-oxo-4,5-dihydro-1,3,4-oxadiazol-2-yl)-5-(trifluoromethyl)-1H-pyrazol-1-yl)pyridin-2-yl)benzamide], the IC50 was less than 100 nM.
The result for `CC1(CO)CC(c2cc(C(F)(F)F)n(-c3ccc(NC(=O)c4c(F)cccc4F)cn3)n2)=NO1` (stereo not drawn) [Example 36, 2,6-Difluoro-N-(6-(3-(5-(hydroxymethyl)-5-methyl-4,5-dihydroisoxazol-3-yl)-5-(trifluoromethyl)-1H-pyrazol-1-yl)pyridin-3-yl)benzamide] reads less than 100 nM; that for `CN1N=C(c2cc(C(F)(F)F)n(-c3ccc(NC(=O)c4c(F)cccc4Cl)cn3)n2)C(C)(C)C1=O` [Example 17, 2-Chloro-6-fluoro-N-(6-(1′,4′,4′-trimethyl-5′-oxo-5-(trifluoromethyl)-4′,5′-dihydro-1H,1′H-[3,3′-bipyrazol]-1-yl)pyridin-3-yl)benzamide], 100 to 1000 nM; that for `Cn1nc(-c2cc(CF)n(-c3ccc(NCc4c(F)cccc4F)cn3)n2)oc1=O` [Example 5, 5-(1-(5-((2,6-Difluorobenzyl)amino)pyridin-2-yl)-5-(fluoromethyl)-1H-pyrazol-3-yl)-3-methyl-1,3,4-oxadiazol-2(3H)-one], 100 to 1000 nM.
The result for `Cn1nc(-c2cc(C(F)(F)F)n(-c3ccc(NCc4c(F)cccc4Cl)cn3)n2)oc1=O` [Example 23, 5-(1-(5-((2-Chloro-6-fluorobenzyl)amino)pyridin-2-yl)-5-(trifluoromethyl)-1H-pyrazol-3-yl)-3-methyl-1,3,4-oxadiazol-2(3H)-one] reads less than 100 nM; that for `CN1N=C(c2cc(C(F)(F)F)n(-c3ccc(NCc4c(F)cccc4Cl)cn3)n2)C(C)(C)C1=O` [Example 25, 1′-(5-((2-Chloro-6-fluorobenzyl)amino)pyridin-2-yl)-1,4,4-trimethyl-5′-(trifluoromethyl)-1H,1′H-[3,3′-bipyrazol]-5(4H)-one], 100 to 1000 nM; that for `CC(=O)N1N=C(c2cc(C(F)(F)F)n(-c3ccc(NC(=O)c4c(F)cccc4F)cn3)n2)OC1(C)C` [Example 20, N-(6-(3-(4-Acetyl-5,5-dimethyl-4,5-dihydro-1,3,4-oxadiazol-2-yl)-5-(trifluoromethyl)-1H-pyrazol-1-yl)pyridin-3-yl)-2,6-difluorobenzamide], 100 to 1000 nM.
Compound `Cc1cccc(F)c1C(=O)Nc1ccc(-n2nc(-c3nn(C)c(=O)o3)cc2C(F)(F)F)cn1` [Example 40, 2-Fluoro-6-methyl-N-(5-(3-(4-methyl-5-oxo-4,5-dihydro-1,3,4-oxadiazol-2-yl)-5-(trifluoromethyl)-1H-pyrazol-1-yl)pyridin-2-yl)benzamide] had an IC50 of less than 100 nM.
The result for `Cn1nc(-c2cc(C(F)(F)F)n(-c3ccc(NC(=O)c4ccccc4F)nc3)n2)oc1=O` [Example 41, 2-Fluoro-N-(5-(3-(4-methyl-5-oxo-4,5-dihydro-1,3,4-oxadiazol-2-yl)-5-(trifluoromethyl)-1H-pyrazol-1-yl)pyridin-2-yl)benzamide] reads less than 100 nM; that for `CN1N=C(c2cc(C(F)(F)F)n(-c3ccc(NCc4c(F)cccc4F)cn3)n2)C(C)(C)C1=O` [Example 24, 1′-(5-((2,6-Difluorobenzyl)amino)pyridin-2-yl)-1,4,4-trimethyl-5′-(trifluoromethyl)-1H,1′H-[3,3′-bipyrazol]-5(4H)-one], 100 to 1000 nM.
Next, `Cn1nc(-c2cc(C(F)F)n(-c3ccc(NCc4c(F)cccc4F)cn3)n2)oc1=O` [Example 12, 5-(1-(5-((2,6-Difluorobenzyl)amino)pyridin-2-yl)-5-(difluoromethyl)-1H-pyrazol-3-yl)-3-methyl-1,3,4-oxadiazol-2(3H)-one]: less than 100 nM; `Cn1nc(-c2cc(C(F)(F)F)n(-c3ccc(NC(=O)c4c(F)cccc4Cl)nc3)n2)oc1=O` [Example 39, 2-Chloro-6-fluoro-N-(5-(3-(4-methyl-5-oxo-4,5-dihydro-1,3,4-oxadiazol-2-yl)-5-(trifluoromethyl)-1H-pyrazol-1-yl)pyridin-2-yl)benzamide]: less than 100 nM; `Cc1cc(-c2nn(C)c(=O)o2)nn1-c1ccc(NCc2c(F)cccc2F)cn1` [Example 32, 5-(1-(5-((2,6-Difluorobenzyl)amino)pyridin-2-yl)-5-methyl-1H-pyrazol-3-yl)-3-methyl-1,3,4-oxadiazol-2(3H)-one]: less than 100 nM.
With `Cn1nc(-c2cc(C(F)(F)F)n(-c3ccc(C(=O)Nc4c(F)cccc4Cl)cn3)n2)oc1=O` [Example 55, N-(2-Chloro-6-fluorophenyl)-6-(3-(4-methyl-5-oxo-4,5-dihydro-1,3,4-oxadiazol-2-yl)-5-(trifluoromethyl)-1H-pyrazol-1-yl)nicotinamide], the IC50 is less than 100 nM.
The result for `CC1(C)COC(c2cc(C(F)(F)F)n(-c3ccc(NCc4c(F)cccc4F)cn3)n2)=N1` [Example 28, N-(2,6-Difluorobenzyl)-6-(3-(4,4-dimethyl-4,5-dihydrooxazol-2-yl)-5-(trifluoromethyl)-1H-pyrazol-1-yl)pyridin-3-amine] reads 100 to 1000 nM.

(Values after patent US9409898B2, “Substituted pyrazole compounds as CRAC modulators” (LUPIN LIMITED, priority 2012, dated 2016).)
